Data on five molecules can be found in ChEMBL document CHEMBL1129900, “Synthesis and biological evaluation of 1-hydroxy-25(R and S)-25,26-Epoxy-23-yne vitamin D3 and of 1,25(R and S),26-Trihydroxy-23-yne vitamin D3” (1997).

For assay [1], the target named is T1, Vitamin D3 receptor (Homo sapiens) (UniProt P11473).
T1 sequence (whole entry): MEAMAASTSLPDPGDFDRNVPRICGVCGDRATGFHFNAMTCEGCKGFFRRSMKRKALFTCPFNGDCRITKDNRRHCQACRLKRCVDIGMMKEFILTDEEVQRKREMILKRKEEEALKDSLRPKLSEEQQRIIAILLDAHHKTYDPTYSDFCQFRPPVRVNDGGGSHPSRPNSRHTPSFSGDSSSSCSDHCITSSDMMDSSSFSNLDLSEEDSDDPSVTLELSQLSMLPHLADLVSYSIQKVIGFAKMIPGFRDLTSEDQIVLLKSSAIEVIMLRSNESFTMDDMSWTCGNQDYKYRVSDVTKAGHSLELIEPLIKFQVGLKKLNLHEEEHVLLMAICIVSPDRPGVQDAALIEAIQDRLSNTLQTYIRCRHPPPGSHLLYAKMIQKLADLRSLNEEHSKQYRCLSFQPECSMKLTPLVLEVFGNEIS
The experiment in a line: Relative affinity compared to Calcitriol in displacement of [3H]1H]1-alpha,25(OH)2D3 from vitamin D receptor (VDR) in […] cells. It counts as cell-based.

Assay [2] concerns the target T1, Vitamin D3 receptor (Homo sapiens). As to the kind of experiment: Relative affinity compared to Calcitriol in displacement of [3H]1H]1-alpha,25(OH)2D3 from vitamin receptor (VDR) in keratinocyte cells. Type of assay: functional, cell-based. Background: Loss of bound radioactivity is the signal in a displacement assay; it reports binding, not function.
For another assay, the system named is Mus musculus. As to the kind of experiment: In vivo calcemic effect was tested in vitamin D replete normal […] mice by measuring calcium levels in serum. It counts as functional.
The target in assay [3] is T2, Vitamin D3 receptor (Sus scrofa) (UniProt A3RGC1).
T2 sequence (whole entry): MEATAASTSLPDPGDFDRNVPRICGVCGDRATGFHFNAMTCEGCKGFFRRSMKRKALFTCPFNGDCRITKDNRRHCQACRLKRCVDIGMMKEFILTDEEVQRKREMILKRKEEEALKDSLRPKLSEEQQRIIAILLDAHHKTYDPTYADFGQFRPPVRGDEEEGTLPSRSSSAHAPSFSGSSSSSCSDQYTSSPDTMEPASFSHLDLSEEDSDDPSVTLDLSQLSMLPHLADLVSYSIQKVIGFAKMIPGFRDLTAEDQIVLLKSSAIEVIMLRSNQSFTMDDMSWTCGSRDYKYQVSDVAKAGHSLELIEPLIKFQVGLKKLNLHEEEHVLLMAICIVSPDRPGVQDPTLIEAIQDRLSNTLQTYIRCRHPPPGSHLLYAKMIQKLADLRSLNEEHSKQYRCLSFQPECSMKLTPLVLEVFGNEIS
The experiment in a line: Affinity for pig intestinal mucosa vitamin D receptor (VDR).

For assay [4], the target named is T1, Vitamin D3 receptor (Homo sapiens). As to the kind of experiment: Relative affinity compared to Calcitriol in displacement of [3H]1H]1-alpha,25(OH)2D3 from vitamin D receptor (VDR) in HL-60 cells. Type of assay: functional, cell-based.
The target of assay [5] is T2, Vitamin D3 receptor (Sus scrofa). The experiment in a line: Affinity for pig intestinal mucosa Vitamin D3 receptor (VDR). It counts as tissue-based.
The target in assay [6] is T1, Vitamin D3 receptor (Homo sapiens). The experiment in a line: Relative affinity compared to Calcitriol in displacement of [3H]1H]1-alpha,25(OH)2D3 from Vitamin D3 receptor in Keratinocyte cell lines.
The target is the same in assay [7]. The experiment in a line: Relative affinity compared to Calcitriol in displacement of [3H]1H]1-alpha,25(OH)2D3 from vitamin D3 receptor in […] cells. Type of assay: cell-based.
For assay [8] the target is unchanged. The experiment in a line: Relative affinity compared to Calcitriol in displacement of [3H]1H]1-alpha,25(OH)2D3 from vitamin D3 receptor in HL-60 cells. It counts as cell-based.

For the molecule `C=C1/C(=C/C=C2/CCC[C@]3(C)[C@@H]([C@H](C)CC#C[C@]4(C)CO4)CC[C@@H]23)C[C@@H](O)C[C@@H]1O`, the Activity in assay [1] was 150%; in assay [2] it was 250%; in the assay with Mus musculus it was 0.2; in assay [3] it was 75; in assay [4], 150%.

For `C=C1/C(=C/C=C2/CCC[C@]3(C)[C@@H]([C@H](C)CC#C[C@](C)(O)CO)CC[C@@H]23)C[C@@H](O)C[C@@H]1O`, the Activity with Mus musculus is 0.7; in assay [5], 70; in [6] it was 250%; in [7] it was 150%; in assay [8], 150%.

As for `C=C1/C(=C/C=C2/CCC[C@]3(C)[C@@H]([C@H](C)CC#C[C@@]4(C)CO4)CC[C@@H]23)C[C@@H](O)C[C@@H]1O`, the Activity with Mus musculus is 0.3; in assay [5] it was 60; in assay [6], 250%; in assay [7], 150%; in [8] it was 150%.

In the case of `C=C1/C(=C/C=C2/CCC[C@]3(C)[C@@H]([C@H](C)CC#CC4(C)CO4)CC[C@@H]23)C[C@@H](O)C[C@@H]1O` (stereo not given in full), the Activity with Mus musculus is 0.25; in assay [5], 70; in assay [6], 250%; in [7], 150%; in assay [8], 150%.

Take `C=C1/C(=C/C=C2/CCC[C@]3(C)[C@@H]([C@H](C)CC#C[C@@](C)(O)CO)CC[C@@H]23)C[C@@H](O)C[C@@H]1O`: the Activity in the assay on Mus musculus was 0.1; in assay [5], 80; in assay [6], 250%; in assay [7], 150%; in assay [8], 150%.
